We go through 1 molecule from ChEMBL document CHEMBL5728589, “Inhibitors of RIP1 kinase and methods of use thereof” (2021).

In general, pKi refers to −log10 of the Ki, conventionally taken in molar units. High values mean a low Ki, low ones a high Ki.

pKi: −log10 of the molar value. Where “and” joins values, the source holds several entries; their conditions need not be identical. Equal entries are not always repeated.

This assay concerns the target T1, Receptor-interacting serine/threonine-protein kinase 1 (Homo sapiens, UniProt Q13546).
T1 sequence (Q13546 whole entry): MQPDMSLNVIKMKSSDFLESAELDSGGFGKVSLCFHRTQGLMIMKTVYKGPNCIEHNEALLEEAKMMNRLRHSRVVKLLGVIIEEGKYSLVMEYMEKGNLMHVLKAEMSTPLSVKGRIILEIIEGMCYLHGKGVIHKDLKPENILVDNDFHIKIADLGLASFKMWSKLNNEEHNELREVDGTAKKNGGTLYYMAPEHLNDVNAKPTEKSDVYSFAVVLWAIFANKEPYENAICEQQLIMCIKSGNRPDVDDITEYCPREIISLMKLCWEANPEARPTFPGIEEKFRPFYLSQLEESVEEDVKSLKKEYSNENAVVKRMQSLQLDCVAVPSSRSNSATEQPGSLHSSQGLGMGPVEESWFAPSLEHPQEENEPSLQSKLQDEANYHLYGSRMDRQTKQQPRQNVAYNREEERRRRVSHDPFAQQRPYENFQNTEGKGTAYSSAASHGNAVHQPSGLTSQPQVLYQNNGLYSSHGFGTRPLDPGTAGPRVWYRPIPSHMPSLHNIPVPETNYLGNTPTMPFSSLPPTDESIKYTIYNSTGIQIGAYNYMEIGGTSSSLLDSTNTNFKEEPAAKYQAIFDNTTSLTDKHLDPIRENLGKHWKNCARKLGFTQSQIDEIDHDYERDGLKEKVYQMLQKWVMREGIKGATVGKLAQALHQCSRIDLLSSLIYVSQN
As to the kind of experiment: Enzyme Assay: The ability of the receptor interacting protein kinase (RIPK1) to catalyze the hydrolysis of adenosine-5′-triphosphate (ATP) is monitored using the Transcreener ADP (adenosine-5′-diphosphate) assay (BellBrook Labs).

For the molecule `CCC(F)(F)[C@H]1CCc2nc(C(=O)N[C@H]3CCc4cc(F)cc(F)c4NC3=O)nn21`, the pKi is 7.68 and 7.85.
